Legend:
Human gammaherpesvirus 4 [1] = assay: Inhibitory activity against TPA-induced Epstein-Barr virus early antigen (EBV-EA) activation at a concentration of 100 mol ratio/TPA; values are per cent of control
Human gammaherpesvirus 4 [2] = assay: Inhibitory activity against TPA-induced Epstein-Barr virus early antigen (EBV-EA) activation at a concentration of 10 mol ratio/TPA; values are per cent of control
Human gammaherpesvirus 4 [3] = assay: Inhibitory activity against TPA-induced Epstein-Barr virus early antigen (EBV-EA) activation at a concentration of 500 mol ratio/TPA; format: functional; set-up: scale not given: the % may be the effect or the level left
Human gammaherpesvirus 4 [4] = assay: Inhibitory activity against TPA-induced Epstein-Barr virus early antigen (EBV-EA) activation at a concentration of 1000 mol ratio/TPA; format: functional

## CCCCC/C=C/C/C=C/CCCCCCCC(=O)O[C@H](COC(=O)CCCCCCCCCCCCC)CO[C@@H]1O[C@H](CO)[C@H](O)[C@H](O)[C@H]1O
Human gammaherpesvirus 4 [1]
  EBV-EA activation (% of control): 88.2%
Human gammaherpesvirus 4 [2]
  EBV-EA activation (% of control): 100%
Human gammaherpesvirus 4 [3]
  Control: 39.6%
Human gammaherpesvirus 4 [4]
  EBV-EA activation (% of control): 17.1%

## CCCCCCCCCCCCCC(=O)OC[C@H](CO[C@@H]1O[C@H](CO)[C@H](O)[C@H](O)[C@H]1O)OC(=O)CCCCCCCCCCCCC
Human gammaherpesvirus 4 [1]
  EBV-EA activation (% of control): 88.2%
Human gammaherpesvirus 4 [2]
  EBV-EA activation (% of control): 100%
Human gammaherpesvirus 4 [3]
  Control: 15.4%
Human gammaherpesvirus 4 [4]
  EBV-EA activation (% of control): 0%

## CCCCCCCCC/C=C/C=C/C=C/C=C/C=C/C=C/C(=O)OC[C@H](CO[C@@H]1O[C@H](CO)[C@H](O)[C@H](O)[C@H]1O)OC(=O)CCCCCCCCCCCCC
Human gammaherpesvirus 4 [1]
  EBV-EA activation (% of control): 68.9%
Human gammaherpesvirus 4 [2]
  EBV-EA activation (% of control): 100%
Human gammaherpesvirus 4 [3]
  Control: 29.7%
Human gammaherpesvirus 4 [4]
  EBV-EA activation (% of control): 13.8%

## CCCCCCCCC/C=C/C=C/C=C/C=C/C=C/C(=O)OC[C@H](CO[C@@H]1O[C@H](CO)[C@H](O)[C@H](O)[C@H]1O)OC(=O)/C=C/C=C/C=C/C=C/C=C/CCCCCCCCC
Human gammaherpesvirus 4 [1]
  EBV-EA activation (% of control): 89%
Human gammaherpesvirus 4 [2]
  EBV-EA activation (% of control): 100%
Human gammaherpesvirus 4 [3]
  Control: 54.3%
Human gammaherpesvirus 4 [4]
  EBV-EA activation (% of control): 0%

## CCCCCCCC/C=C/CCCCCCCC(=O)OC[C@H](CO[C@@H]1O[C@H](CO)[C@H](O)[C@H](O)[C@H]1O)OC(=O)/C=C/C=C/C=C/C=C/C=C/CCCCCCCCC
Human gammaherpesvirus 4 [1]
  EBV-EA activation (% of control): 53.6%
Human gammaherpesvirus 4 [2]
  EBV-EA activation (% of control): 81.7%
Human gammaherpesvirus 4 [3]
  Control: 0%
Human gammaherpesvirus 4 [4]
  EBV-EA activation (% of control): 0%

## CCCCC/C=C/C/C=C/CCCCCCCC(=O)O[C@H](COC(=O)CCCCCCC/C=C/CCCCCC)CO[C@@H]1O[C@H](CO)[C@H](O)[C@H](O)[C@H]1O
Human gammaherpesvirus 4 [1]
  EBV-EA activation (% of control): 100%
Human gammaherpesvirus 4 [2]
  EBV-EA activation (% of control): 100%
Human gammaherpesvirus 4 [3]
  Control: 74.6%
Human gammaherpesvirus 4 [4]
  EBV-EA activation (% of control): 53.3%

## CCCCCCCC/C=C/CCCCCCCC(=O)OC[C@H](CO[C@@H]1O[C@H](CO)[C@H](O)[C@H](O)[C@H]1O)OC(=O)/C=C/C=C/C=C/C=C/C=C/C=C/CCCCCCCCC
Human gammaherpesvirus 4 [1]
  EBV-EA activation (% of control): 68.1%
Human gammaherpesvirus 4 [2]
  EBV-EA activation (% of control): 88.4%
Human gammaherpesvirus 4 [3]
  Control: 26.4%
Human gammaherpesvirus 4 [4]
  EBV-EA activation (% of control): 0%

## CCCCCCCCC/C=C/C=C/C=C/C=C/C=C/C(=O)O[C@H](COC(=O)CCCCCCCCCCCCC)CO[C@@H]1O[C@H](CO)[C@H](O)[C@H](O)[C@H]1O
Human gammaherpesvirus 4 [1]
  EBV-EA activation (% of control): 72.8%
Human gammaherpesvirus 4 [2]
  EBV-EA activation (% of control): 90.7%
Human gammaherpesvirus 4 [3]
  Control: 30.6%
Human gammaherpesvirus 4 [4]
  EBV-EA activation (% of control): 15.8%

## CC/C=C/C/C=C/C/C=C/CCCCCCCC(=O)O[C@H](COC(=O)CCCCCCC/C=C/C/C=C/CCCCC)CO[C@@H]1O[C@H](CO)[C@H](O)[C@H](O)[C@H]1O
Human gammaherpesvirus 4 [1]
  EBV-EA activation (% of control): 64.5%
Human gammaherpesvirus 4 [2]
  EBV-EA activation (% of control): 84.9%
Human gammaherpesvirus 4 [3]
  Control: 22.2%
Human gammaherpesvirus 4 [4]
  EBV-EA activation (% of control): 8.7%

## CC/C=C/C/C=C/C/C=C/CCCCCCCC(=O)O[C@H](COC(=O)CCCCCCCCCCCCCCC)CO[C@@H]1O[C@H](CO)[C@H](O)[C@H](O)[C@H]1O
Human gammaherpesvirus 4 [1]
  EBV-EA activation (% of control): 92.6%
Human gammaherpesvirus 4 [2]
  EBV-EA activation (% of control): 100%
Human gammaherpesvirus 4 [3]
  Control: 57.6%
Human gammaherpesvirus 4 [4]
  EBV-EA activation (% of control): 19.4%

## CCCCCCCCCCCCCC(=O)OC[C@@H](CO[C@@H]1O[C@H](CO)[C@H](O)[C@H](O)[C@H]1O)OC(C)=O
Human gammaherpesvirus 4 [1]
  EBV-EA activation (% of control): 52.9%
Human gammaherpesvirus 4 [2]
  EBV-EA activation (% of control): 77.4%
Human gammaherpesvirus 4 [3]
  Control: 36.8%
Human gammaherpesvirus 4 [4]
  EBV-EA activation (% of control): 17.4%

## CCC=CCC=CCC=CCCCCCCCC(=O)O[C@@H](COC(=O)CCCCCCCCCCCCC)CO[C@@H]1O[C@H](CO)[C@H](O)[C@H](O)[C@H]1O
Human gammaherpesvirus 4 [1]
  EBV-EA activation (% of control): 73.9%
Human gammaherpesvirus 4 [2]
  EBV-EA activation (% of control): 100%
Human gammaherpesvirus 4 [3]
  Control: 20.2%
Human gammaherpesvirus 4 [4]
  EBV-EA activation (% of control): 0%

## CCCCCCCCC/C=C/C=C/C=C/C=C/C=C/C(=O)O[C@@H](COC(=O)CCCCCCCCCCCCC)CO[C@@H]1O[C@H](CO)[C@H](O)[C@H](O)[C@H]1O
Human gammaherpesvirus 4 [1]
  EBV-EA activation (% of control): 84.1%
Human gammaherpesvirus 4 [2]
  EBV-EA activation (% of control): 100%
Human gammaherpesvirus 4 [3]
  Control: 52.8%
Human gammaherpesvirus 4 [4]
  EBV-EA activation (% of control): 26.1%

## CCCCCCCC/C=C/CCCCCCCC(=O)O[C@H](COC(=O)C=C/C=C/C=C/C=C/C=C/C=C/CCCCCCCCC)CO[C@@H]1O[C@H](CO)[C@H](O)[C@H](O)[C@H]1O
Human gammaherpesvirus 4 [1]
  EBV-EA activation (% of control): 62.9%
Human gammaherpesvirus 4 [2]
  EBV-EA activation (% of control): 83.2%
Human gammaherpesvirus 4 [3]
  Control: 12.8%
Human gammaherpesvirus 4 [4]
  EBV-EA activation (% of control): 0%

## CCCCCCCC/C=C/CCCCCCCC(=O)O[C@H](COC(=O)CCCCCCCCCCCCC)CO[C@@H]1O[C@H](CO)[C@H](O)[C@H](O)[C@H]1O
Human gammaherpesvirus 4 [1]
  EBV-EA activation (% of control): 80.4%
Human gammaherpesvirus 4 [2]
  EBV-EA activation (% of control): 100%
Human gammaherpesvirus 4 [3]
  Control: 16.9%
Human gammaherpesvirus 4 [4]
  EBV-EA activation (% of control): 0%

## CCCCCCCCC/C=C/C=C/C=C/C=C/C=C/C=C/C(=O)OC[C@H](CO[C@@H]1O[C@H](CO)[C@H](O)[C@H](O)[C@H]1O)OC(=O)/C=C/C=C/C=C/C=C/C=C/C=C/CCCCCCCCC
Human gammaherpesvirus 4 [1]
  EBV-EA activation (% of control): 64.8%
Human gammaherpesvirus 4 [2]
  EBV-EA activation (% of control): 86.8%
Human gammaherpesvirus 4 [3]
  Control: 26.3%
Human gammaherpesvirus 4 [4]
  EBV-EA activation (% of control): 0%

## OC[C@@H](O)CO[C@@H]1O[C@H](CO)[C@H](O)[C@H](O)[C@H]1O
Human gammaherpesvirus 4 [1]
  EBV-EA activation (% of control): 66.7%
Human gammaherpesvirus 4 [2]
  EBV-EA activation (% of control): 100%
Human gammaherpesvirus 4 [3]
  Control: 15.8%
Human gammaherpesvirus 4 [4]
  EBV-EA activation (% of control): 0%

## CCCCCCCC/C=C/CCCCCCCC(=O)OCC(O)CO[C@@H]1O[C@H](CO)[C@H](O)[C@H](O)[C@H]1O (single isomer, unassigned)
Human gammaherpesvirus 4 [1]
  EBV-EA activation (% of control): 84.7%
Human gammaherpesvirus 4 [2]
  EBV-EA activation (% of control): 100%
Human gammaherpesvirus 4 [3]
  Control: 0%
Human gammaherpesvirus 4 [4]
  EBV-EA activation (% of control): 0%

## CCCCCCCCCCCCCC(=O)OCC(O)CO[C@@H]1O[C@H](CO)[C@H](O)[C@H](O)[C@H]1O (single isomer, unassigned)
Human gammaherpesvirus 4 [1]
  EBV-EA activation (% of control): 65.3%
Human gammaherpesvirus 4 [2]
  EBV-EA activation (% of control): 90.7%
Human gammaherpesvirus 4 [3]
  Control: 22.5%
Human gammaherpesvirus 4 [4]
  EBV-EA activation (% of control): 0%

## CCCCC/C=C/C/C=C/CCCCCCCC(=O)OCC(O)CO[C@@H]1O[C@H](CO)[C@H](O)[C@H](O)[C@H]1O (single isomer, unassigned)
Human gammaherpesvirus 4 [1]
  EBV-EA activation (% of control): 79.8%
Human gammaherpesvirus 4 [2]
  EBV-EA activation (% of control): 100%
Human gammaherpesvirus 4 [3]
  Control: 24.1%
Human gammaherpesvirus 4 [4]
  EBV-EA activation (% of control): 0%

## CCCCCCCC/C=C/CCCCCCCC(=O)OCC(CO[C@@H]1O[C@H](CO)[C@H](O)[C@H](O)[C@H]1O)OC(=O)CCCCCCC/C=C/CCCCCCCC (single isomer, unassigned)
Human gammaherpesvirus 4 [1]
  EBV-EA activation (% of control): 21.3%
Human gammaherpesvirus 4 [2]
  EBV-EA activation (% of control): 61%
Human gammaherpesvirus 4 [3]
  Control: 11%
Human gammaherpesvirus 4 [4]
  EBV-EA activation (% of control): 0%

## CCCCCCCCCC=CC=CC=CC=CC=CC=CC(=O)OC(COC(=O)CCCCCCCCCCCCC)CO[C@@H]1O[C@H](CO)[C@H](O)[C@H](O)[C@H]1O (single isomer, unassigned)
Human gammaherpesvirus 4 [1]
  EBV-EA activation (% of control): 88.3%
Human gammaherpesvirus 4 [2]
  EBV-EA activation (% of control): 100%
Human gammaherpesvirus 4 [3]
  Control: 64.7%
Human gammaherpesvirus 4 [4]
  EBV-EA activation (% of control): 0%

## CCCCCCCCC=CCCCCCCCC(=O)OC(COC(=O)C=CC=CC=CC=CC=CCCCCCCCCC)CO[C@@H]1O[C@H](CO)[C@H](O)[C@H](O)[C@H]1O (single isomer, unassigned)
Human gammaherpesvirus 4 [1]
  EBV-EA activation (% of control): 69.6%
Human gammaherpesvirus 4 [2]
  EBV-EA activation (% of control): 93.2%
Human gammaherpesvirus 4 [3]
  Control: 18.5%
Human gammaherpesvirus 4 [4]
  EBV-EA activation (% of control): 0%

From ChEMBL document CHEMBL1127924, “Synthesis and structure - anti-tumor-promoting activity relationship of monogalactosyl diacylglycerols” (1994)
